Experiments:
Assay in all cases: KINOMEscan (ScanMAX) kinase profiling
Format in all cases: binding
panel of 468 kinases [1] = molecular target: T1, panel of 468 kinases (Homo sapiens, UniProt O00141); settings: SGK; 1 μM; read-out: % control
T1 construct: purchased KINOMEscan (ScanMAX) service
T1 sequence (O00141 1-431): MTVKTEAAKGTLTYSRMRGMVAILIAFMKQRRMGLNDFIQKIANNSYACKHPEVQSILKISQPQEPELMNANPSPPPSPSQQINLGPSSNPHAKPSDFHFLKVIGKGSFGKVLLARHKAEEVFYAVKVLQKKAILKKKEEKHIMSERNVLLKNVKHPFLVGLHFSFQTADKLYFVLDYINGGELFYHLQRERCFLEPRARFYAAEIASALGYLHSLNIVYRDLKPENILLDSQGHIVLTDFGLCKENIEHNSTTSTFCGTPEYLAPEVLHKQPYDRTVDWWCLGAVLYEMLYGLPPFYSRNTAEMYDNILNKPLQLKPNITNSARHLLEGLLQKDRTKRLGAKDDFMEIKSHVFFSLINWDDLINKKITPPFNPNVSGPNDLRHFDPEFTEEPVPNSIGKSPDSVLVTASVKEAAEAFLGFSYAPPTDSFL

panel of 468 kinases [2] = molecular target: T2, panel of 468 kinases (Homo sapiens, UniProt P0C264); settings: SgK110; 1 μM; read-out: % control
T2 construct: purchased KINOMEscan (ScanMAX) service
T2 sequence (P0C264 1-359): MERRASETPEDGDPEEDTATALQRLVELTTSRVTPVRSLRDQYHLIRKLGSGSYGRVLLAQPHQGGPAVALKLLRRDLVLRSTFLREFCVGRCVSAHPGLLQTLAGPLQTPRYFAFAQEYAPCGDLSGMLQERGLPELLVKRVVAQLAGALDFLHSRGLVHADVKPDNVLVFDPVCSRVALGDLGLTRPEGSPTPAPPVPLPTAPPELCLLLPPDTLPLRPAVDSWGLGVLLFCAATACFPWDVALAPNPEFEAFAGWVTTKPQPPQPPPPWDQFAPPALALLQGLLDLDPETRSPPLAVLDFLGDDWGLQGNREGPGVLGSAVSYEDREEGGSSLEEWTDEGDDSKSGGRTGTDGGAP

panel of 468 kinases [3] = molecular target: T3, panel of 468 kinases (Homo sapiens, UniProt P08581, M1250T); settings: MET(M1250T); 1 μM; read-out: % control
T3 construct: purchased KINOMEscan (ScanMAX) service

panel of 468 kinases [4] = molecular target: T4, panel of 468 kinases (Homo sapiens, UniProt P42338); settings: PIK3CB; 1 μM; read-out: % control
T4 construct: purchased KINOMEscan (ScanMAX) service

panel of 468 kinases [5] = molecular target: T5, panel of 468 kinases (Homo sapiens, UniProt Q9H422); settings: HIPK3; 1 μM; read-out: % control
T5 construct: purchased KINOMEscan (ScanMAX) service

panel of 468 kinases [6] = molecular target: T6, panel of 468 kinases (Homo sapiens, UniProt O75385); settings: ULK1; 1 μM; read-out: % control
T6 construct: purchased KINOMEscan (ScanMAX) service
T6 sequence (O75385 1-1050): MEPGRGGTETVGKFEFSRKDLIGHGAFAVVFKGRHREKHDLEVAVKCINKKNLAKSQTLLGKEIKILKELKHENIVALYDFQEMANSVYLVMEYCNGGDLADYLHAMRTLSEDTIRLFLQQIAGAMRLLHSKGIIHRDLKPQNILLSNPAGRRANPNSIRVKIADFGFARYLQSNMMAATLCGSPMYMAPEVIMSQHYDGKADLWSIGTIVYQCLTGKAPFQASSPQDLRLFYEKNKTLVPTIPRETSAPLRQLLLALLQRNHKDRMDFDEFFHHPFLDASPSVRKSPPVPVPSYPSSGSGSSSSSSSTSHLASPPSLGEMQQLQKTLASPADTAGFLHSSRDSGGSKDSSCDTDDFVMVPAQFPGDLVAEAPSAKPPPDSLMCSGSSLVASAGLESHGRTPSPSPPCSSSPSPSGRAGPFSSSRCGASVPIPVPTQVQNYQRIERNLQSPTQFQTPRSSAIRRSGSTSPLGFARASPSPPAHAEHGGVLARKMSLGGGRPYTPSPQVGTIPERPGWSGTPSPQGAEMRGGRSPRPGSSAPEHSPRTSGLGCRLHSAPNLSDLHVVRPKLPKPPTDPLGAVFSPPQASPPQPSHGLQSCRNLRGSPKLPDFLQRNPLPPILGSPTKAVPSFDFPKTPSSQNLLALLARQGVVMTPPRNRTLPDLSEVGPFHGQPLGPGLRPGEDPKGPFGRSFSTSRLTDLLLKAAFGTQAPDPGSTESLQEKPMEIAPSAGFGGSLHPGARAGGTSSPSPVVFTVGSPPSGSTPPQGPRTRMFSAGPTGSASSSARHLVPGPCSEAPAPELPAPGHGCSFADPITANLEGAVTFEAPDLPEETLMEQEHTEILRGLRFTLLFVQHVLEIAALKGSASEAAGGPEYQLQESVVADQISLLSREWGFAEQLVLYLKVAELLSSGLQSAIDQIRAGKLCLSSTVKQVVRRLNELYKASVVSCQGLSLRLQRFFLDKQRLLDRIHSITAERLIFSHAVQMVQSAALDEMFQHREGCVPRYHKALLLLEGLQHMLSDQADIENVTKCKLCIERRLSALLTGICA

T5 sequence (Q9H422 whole entry): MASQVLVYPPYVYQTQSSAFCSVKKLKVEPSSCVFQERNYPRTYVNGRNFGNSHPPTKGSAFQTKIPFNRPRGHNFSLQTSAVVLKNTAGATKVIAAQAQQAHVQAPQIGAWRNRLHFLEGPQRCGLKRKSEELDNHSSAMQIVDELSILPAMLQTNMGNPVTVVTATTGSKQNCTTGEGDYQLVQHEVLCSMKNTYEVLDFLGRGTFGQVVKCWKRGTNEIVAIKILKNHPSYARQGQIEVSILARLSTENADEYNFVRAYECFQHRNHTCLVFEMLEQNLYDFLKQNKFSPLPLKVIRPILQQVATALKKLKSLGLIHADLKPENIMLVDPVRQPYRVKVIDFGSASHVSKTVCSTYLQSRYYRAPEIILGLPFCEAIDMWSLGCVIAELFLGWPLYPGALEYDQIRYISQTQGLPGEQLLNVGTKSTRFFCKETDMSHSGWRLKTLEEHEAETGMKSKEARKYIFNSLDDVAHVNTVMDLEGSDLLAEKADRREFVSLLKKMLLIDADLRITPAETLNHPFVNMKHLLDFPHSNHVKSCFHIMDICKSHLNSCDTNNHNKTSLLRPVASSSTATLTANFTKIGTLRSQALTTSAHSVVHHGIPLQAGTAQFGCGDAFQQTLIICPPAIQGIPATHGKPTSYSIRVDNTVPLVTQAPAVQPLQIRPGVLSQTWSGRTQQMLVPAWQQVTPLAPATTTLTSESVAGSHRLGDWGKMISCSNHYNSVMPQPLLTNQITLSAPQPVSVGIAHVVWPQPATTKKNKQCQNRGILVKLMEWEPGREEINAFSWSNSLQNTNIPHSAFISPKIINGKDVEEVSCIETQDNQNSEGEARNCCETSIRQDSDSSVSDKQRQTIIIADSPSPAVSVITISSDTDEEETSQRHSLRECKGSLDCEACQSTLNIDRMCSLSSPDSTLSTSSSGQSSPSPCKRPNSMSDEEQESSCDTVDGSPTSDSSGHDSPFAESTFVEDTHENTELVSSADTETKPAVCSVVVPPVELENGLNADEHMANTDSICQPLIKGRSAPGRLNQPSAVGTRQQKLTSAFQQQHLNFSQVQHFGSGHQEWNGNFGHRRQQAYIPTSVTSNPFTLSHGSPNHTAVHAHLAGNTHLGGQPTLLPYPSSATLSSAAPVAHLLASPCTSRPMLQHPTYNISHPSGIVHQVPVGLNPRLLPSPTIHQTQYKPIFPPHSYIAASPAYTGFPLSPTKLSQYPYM
T4 sequence (P42338 whole entry): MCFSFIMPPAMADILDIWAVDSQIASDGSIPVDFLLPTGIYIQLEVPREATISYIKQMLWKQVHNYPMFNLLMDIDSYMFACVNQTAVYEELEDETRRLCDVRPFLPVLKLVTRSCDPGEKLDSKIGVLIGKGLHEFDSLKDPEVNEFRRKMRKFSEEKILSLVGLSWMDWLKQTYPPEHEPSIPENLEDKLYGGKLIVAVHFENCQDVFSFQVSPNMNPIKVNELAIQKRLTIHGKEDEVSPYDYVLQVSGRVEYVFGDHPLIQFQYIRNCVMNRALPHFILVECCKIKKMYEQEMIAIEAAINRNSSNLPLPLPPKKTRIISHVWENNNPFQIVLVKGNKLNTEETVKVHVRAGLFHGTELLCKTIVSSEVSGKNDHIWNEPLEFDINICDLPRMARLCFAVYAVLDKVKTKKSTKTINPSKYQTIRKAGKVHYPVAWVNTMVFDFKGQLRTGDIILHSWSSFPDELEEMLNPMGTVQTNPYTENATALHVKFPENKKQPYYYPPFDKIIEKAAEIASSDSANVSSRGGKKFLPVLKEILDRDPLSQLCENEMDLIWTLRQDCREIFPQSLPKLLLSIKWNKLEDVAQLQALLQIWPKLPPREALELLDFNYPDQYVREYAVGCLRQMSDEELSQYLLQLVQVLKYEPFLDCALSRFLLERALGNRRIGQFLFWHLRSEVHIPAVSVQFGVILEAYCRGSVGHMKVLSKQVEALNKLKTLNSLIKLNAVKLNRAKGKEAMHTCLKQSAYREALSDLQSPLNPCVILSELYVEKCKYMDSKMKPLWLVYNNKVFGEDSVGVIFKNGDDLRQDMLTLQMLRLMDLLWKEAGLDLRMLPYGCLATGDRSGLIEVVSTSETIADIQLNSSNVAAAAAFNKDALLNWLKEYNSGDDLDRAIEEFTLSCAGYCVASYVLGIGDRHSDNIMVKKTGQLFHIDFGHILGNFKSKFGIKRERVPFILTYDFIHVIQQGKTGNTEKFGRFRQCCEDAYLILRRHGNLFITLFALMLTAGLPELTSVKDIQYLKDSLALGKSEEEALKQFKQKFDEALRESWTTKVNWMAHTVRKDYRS
T3 sequence (P08581 25-1390 M1250T): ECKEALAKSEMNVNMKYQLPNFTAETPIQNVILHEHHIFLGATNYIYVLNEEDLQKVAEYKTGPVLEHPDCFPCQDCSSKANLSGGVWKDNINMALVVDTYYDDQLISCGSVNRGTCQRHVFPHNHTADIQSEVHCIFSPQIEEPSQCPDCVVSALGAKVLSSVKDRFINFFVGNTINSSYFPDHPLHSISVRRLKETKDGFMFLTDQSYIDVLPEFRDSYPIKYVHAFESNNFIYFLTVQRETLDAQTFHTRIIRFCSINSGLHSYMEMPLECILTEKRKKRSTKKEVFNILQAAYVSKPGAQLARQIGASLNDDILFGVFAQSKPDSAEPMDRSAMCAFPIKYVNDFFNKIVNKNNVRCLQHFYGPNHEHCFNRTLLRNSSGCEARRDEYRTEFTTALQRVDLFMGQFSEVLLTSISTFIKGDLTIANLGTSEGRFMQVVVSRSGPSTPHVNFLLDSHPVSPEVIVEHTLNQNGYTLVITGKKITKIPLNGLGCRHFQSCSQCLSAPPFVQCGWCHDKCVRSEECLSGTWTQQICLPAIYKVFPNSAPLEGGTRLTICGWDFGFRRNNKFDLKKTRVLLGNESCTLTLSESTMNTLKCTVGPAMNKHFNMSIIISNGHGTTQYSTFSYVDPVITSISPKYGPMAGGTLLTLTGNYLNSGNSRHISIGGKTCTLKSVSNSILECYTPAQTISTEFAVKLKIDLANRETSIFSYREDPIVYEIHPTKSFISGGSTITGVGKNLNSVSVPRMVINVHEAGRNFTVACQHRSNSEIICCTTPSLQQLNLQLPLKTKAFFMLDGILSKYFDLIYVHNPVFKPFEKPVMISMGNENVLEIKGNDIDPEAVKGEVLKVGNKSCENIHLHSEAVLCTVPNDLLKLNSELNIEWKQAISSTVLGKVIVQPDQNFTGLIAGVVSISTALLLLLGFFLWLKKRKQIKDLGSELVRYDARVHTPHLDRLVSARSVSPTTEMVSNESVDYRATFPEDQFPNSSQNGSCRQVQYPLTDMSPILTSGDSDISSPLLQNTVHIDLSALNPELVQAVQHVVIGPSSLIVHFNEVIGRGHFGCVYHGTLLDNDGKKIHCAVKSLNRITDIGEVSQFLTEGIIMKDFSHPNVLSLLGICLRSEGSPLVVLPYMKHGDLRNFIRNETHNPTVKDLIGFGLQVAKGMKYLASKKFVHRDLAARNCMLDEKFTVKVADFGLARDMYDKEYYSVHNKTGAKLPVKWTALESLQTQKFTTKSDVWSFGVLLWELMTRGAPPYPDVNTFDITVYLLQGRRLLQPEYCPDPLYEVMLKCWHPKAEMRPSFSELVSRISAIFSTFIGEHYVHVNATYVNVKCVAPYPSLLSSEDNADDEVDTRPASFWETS

Structure (SMILES) | remaining binding at 1 µM (panel of 468 kinases [1]) | remaining binding at 1 µM (panel of 468 kinases [2]) | remaining binding at 1 µM (panel of 468 kinases [3]) | remaining binding at 1 µM (panel of 468 kinases [4]) | remaining binding at 1 µM (panel of 468 kinases [5]) | remaining binding at 1 µM (panel of 468 kinases [6])
CNc1nc(Nc2ccc(S(=O)(=O)N3CCC(N4CCOCC4)CC3)cc2OC)nc2[nH]cc(Cl)c12 [Compound 12, 5-chloro-N2-(2-methoxy-4-((4-morpholinopiperidin-1-yl)sulfonyl)phenyl)-N4-methyl-7H-pyrrolo[2,3-d]pyrimidine-2,4-diamine] | 89% | 92% | 100% | 80% | 72% | 97%
CNc1nc(Nc2ccc(P3(=O)CCN(C4CCOCC4)CC3)cc2OC)nc2[nH]cc(Cl)c12 [Compound 77, 4-(4-((5-chloro-4-(methylamino)-7H-pyrrolo[2,3-d]pyrimidin-2-yl)amino)-3-methoxyphenyl)-1-(tetrahydro-2H-pyran-4-yl)-1,4-azaphosphinane 4-oxide] | 68% | 98% | 100% | 71% | 64% | 95%
CNc1nc(Nc2ccc(C(=O)N3CCC(N4CCOCC4)CC3)c3c2OCO3)nc2[nH]cc(Cl)c12 [Compound 75, (7-((5-chloro-4-(methylamino)-7H-pyrrolo[2,3-d]pyrimidin-2-yl)amino)benzo[d][1,3]dioxol-4-yl)(4-morpholinopiperidin-1-yl)methanone] | 7.2% | 100% | 100% | 89% | 59% | 50%

— patent publication US12479847B2 (DANA-FARBER CANCER INSTITUTE, INC., priority 2019, dated 2025)
